From patent publication US20230312587A1, “PTERIDINONE COMPOUNDS AND USES THEREOF” (Vertex Pharmaceutical Incorporated, priority 2018, published 2023) come the findings set out here.

pIC50: −log10 of the molar value. Read-outs that look alike come from different tables or passages of the source.

This assay relates to β-catenin-TCF-mediated reporter transcription activity in Colo 205 cells. Put plainly: Colo 205 reporter assay (TCF/LEF luciferase). It counts as cell-based. The note with it: Colo 205 TCF/LEF luciferase reporter, read-out: TCF reporter Colo205 IC50. The procedure, abridged:
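Luciferase signal from a TCF/LEF-driven reporter, stably integrated in Colo 205 colon cancer cells, was measured 5 h after compound addition.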

[1] abbreviates: Homo sapiens, COLO 205, 5 h, five hours after addition of compound.
[2] abbreviates: Homo sapiens, COLO 205, 5 h, R-isomer at C2 (corresponding to C2 S-isomer), 5 h.

What is called pIC50 is the IC50 on a negative log10 scale, so that one unit is a factor of ten. For the compound `Cc1nc(N[C@H]2C[C@@H](Nc3ccc(OC(F)(F)F)cn3)C2)nc2c1NC(=O)[C@H](C(C)C)N2C` [Compound 576, (S)-7-isopropyl-4,8-dimethyl-2-((cis-3-((5-(trifluoromethoxy)pyridin-2-yl)amino)cyclobutyl)amino)-7,8-dihydropteridin-6(5H)-one], under setting [1], the pIC50 is more than 6.52.

`CCN1C(=O)C(C)(C)N(CC)c2nc(NCc3cnn(Cc4ccc(F)cc4)c3)ncc21` [Compound 230, 5,8-diethyl-2-(((1-(4-fluorobenzyl)-1H-pyrazol-4-yl)methyl)amino)-7,7-dimethyl-7,8-dihydropteridin-6(5H)-one]: the pIC50 under setting [1] is 6.00 to 6.52.

For `Cc1nc(NCc2cnn(C[C@@H]3CCCN3c3cc(F)cc(F)c3)c2)nc2c1NC(=O)[C@H](C)N2C` [Compound 219, (7S)-2-(((1-(((S)-1-(3,5-difluorophenyl)pyrrolidin-2-yl)methyl)-1H-pyrazol-4-yl)methyl)amino)-4,7,8-trimethyl-7,8-dihydropteridin-6(5H)-one], under setting [1], the negative-log IC50 (pIC50) was more than 6.52.

On to `Cc1nc(N[C@H]2C[C@H](n3nccc3C(F)(F)F)C2)nc2c1NC(=O)[C@H](C(C)C)N2C` [Compound 673, (7S)-7-isopropyl-4,8-dimethyl-2-((trans-3-(5-(trifluoromethyl)-1H-pyrazol-1-yl)cyclobutyl)amino)-7,8-dihydropteridin-6(5H)-one], for which the negative-log IC50 (pIC50) under setting [1] was 6.00 to 6.52.

For `COCC1(C)C(=O)Nc2c(C)nc(NCc3cnn(Cc4ccc(C(F)(F)F)nc4)c3)nc2N1C` (stereo not drawn) [Compound 707, 7-(methoxymethyl)-4,7,8-trimethyl-2-(((1-((6-(trifluoromethyl)pyridin-3-yl)methyl)-1H-pyrazol-4-yl)methyl)amino)-7,8-dihydropteridin-6(5H)-one], where the note is “five hours after addition of compound”, the negative-log IC50 (pIC50) was 6.00 to 6.52.

Regarding `Cc1nc(NC2CN(C(=O)[C@@H]3CCCO3)C2)nc2c1NC(=O)[C@H](C(C)C)N2C` [Compound 642, (S)-7-isopropyl-4,8-dimethyl-2-((1-((S)-tetrahydrofuran-2-carbonyl)azetidin-3-yl)amino)-7,8-dihydropteridin-6(5H)-one], the pIC50 under setting [1] was not above 5.30.

For `CCN1c2nc(NCc3cnn(Cc4ccc(F)cc4)c3)ncc2N(C)C(=O)[C@H]1C` [Compound I-860], the pIC50 under setting [2] was more than 6.52.

Take `COC1(C2C(=O)Nc3c(C)nc(N[C@H]4C[C@H](Oc5cnc(C(F)(F)F)nc5)C4)nc3N2C)CCC1` (relative stereo) [Compound 718, 7-(1-methoxycyclobutyl)-4,8-dimethyl-2-((trans-3-((2-(trifluoromethyl)pyrimidin-5-yl)oxy)cyclobutyl)amino)-7,8-dihydropteridin-6(5H)-one]: the negative-log IC50 (pIC50) under setting [1] is more than 6.52.

Regarding `C=C(C)c1ccc(Cn2cc(CNc3nc(C)c4c(n3)N(C)[C@@H](C(C)C)C(=O)N4)cn2)cn1` [Compound 480, (S)-7-isopropyl-4,8-dimethyl-2-(((1-((6-(prop-1-en-2-yl)pyridin-3-yl)methyl)-1H-pyrazol-4-yl)methyl)amino)-7,8-dihydropteridin-6(5H)-one], the pIC50 under setting [1] is more than 6.52.

On to `COc1cc(Cn2cc(CNc3nc(C)c4c(n3)N(C)[C@@H](C)C(=O)N4)cn2)ccc1F` [Compound 75, (7S)-2-(((1-(4-fluoro-3-methoxybenzyl)-1H-pyrazol-4-yl)methyl)amino)-4,7,8-trimethyl-7,8-dihydropteridin-6(5H)-one], for which the pIC50 under setting [1] was more than 6.52.

With `CCN1C(=O)[C@](C)(CC)N(CC)c2nc(NCc3cnn(Cc4cc(F)c(F)c(F)c4)c3)ncc21` [Compound 35, (7S)-5,7,8-triethyl-7-methyl-2-(((1-(3,4,5-trifluorobenzyl)-1H-pyrazol-4-yl)methyl)amino)-7,8-dihydropteridin-6(5H)-one], the negative-log IC50 (pIC50) under setting [1] is more than 6.52.

`Cc1nc(N[C@H]2C[C@H](Nc3nccc(C(F)(F)F)n3)C2)nc2c1NC(=O)[C@H](C(C)C)N2C` [Compound 529, (S)-7-isopropyl-4,8-dimethyl-2-((trans-3-((4-(trifluoromethyl)pyrimidin-2-yl)amino)cyclobutyl)amino)-7,8-dihydropteridin-6(5H)-one]: under setting [1], the negative logarithm of the IC50 (pIC50) was 5.30 to 6.00.

Take `Cc1ccc(OC[C@H]2C[C@@H](Nc3nc(C)c4c(n3)N(C)[C@@H](C(C)C)C(=O)N4)C2)cn1` [Compound 571, (S)-7-isopropyl-4,8-dimethyl-2-((cis-3-(((6-methylpyridin-3-yl)oxy)methyl)cyclobutyl)amino)-7,8-dihydropteridin-6(5H)-one]: the negative-log IC50 (pIC50) under setting [1] was 6.00 to 6.52.

As to `CO[C@H](C)[C@H]1C(=O)Nc2c(C)nc(N[C@H]3C[C@@H](Cn4nccc4C(F)(F)F)C3)nc2N1C` [Compound 588, (S)-7-((R)-1-methoxyethyl)-4,8-dimethyl-2-((cis-3-((5-(trifluoromethyl)-1H-pyrazol-1-yl)methyl)cyclobutyl)amino)-7,8-dihydropteridin-6(5H)-one], the pIC50 under setting [1] was more than 6.52.

In the case of `COc1c(F)ccc(Cn2cc(CNc3nc(C)c4c(n3)N(C)[C@@H](C)C(=O)N4)cn2)c1F` [Compound 88, (7S)-2-(((1-(2,4-difluoro-3-methoxybenzyl)-1H-pyrazol-4-yl)methyl)amino)-4,7,8-trimethyl-7,8-dihydropteridin-6(5H)-one], under setting [1], the pIC50 was more than 6.52.

Consider `Cc1nc(N[C@H]2C[C@@H](COc3ccc(C(F)(F)F)nc3)C2)nc2c1NC(=O)[C@H](C)N2C` [Compound 364, (7S)-4,7,8-trimethyl-2-((cis-3-(((6-(trifluoromethyl)pyridin-3-yl)oxy)methyl)cyclobutyl)amino)-7,8-dihydropteridin-6(5H)-one], for which the negative logarithm of the IC50 (pIC50) under setting [1] was more than 6.52.

Take `Cc1nc(N[C@H]2C[C@H](Oc3cncc(C(F)(F)F)c3)C2)nc2c1NC(=O)[C@H](C)N2C` [Compound 315, (7S)-4,7,8-trimethyl-2-((trans-3-((5-(trifluoromethyl)pyridin-3-yl)oxy)cyclobutyl)amino)-7,8-dihydropteridin-6(5H)-one]: the negative logarithm of the IC50 (pIC50) under setting [1] is more than 6.52.

Consider `O=C1Nc2cnc(NCc3cnn(Cc4ccc(F)cc4)c3)nc2N[C@H]1CCO` [Compound 11, (7S)-2-(((1-(4-Fluorobenzyl)-1H-pyrazol-4-yl)methyl)amino)-7-(2-hydroxyethyl)-7,8-dihydropteridin-6(5H)-one], for which, under setting [1], the pIC50 is not above 5.30.

For `Cc1nc(NCc2cnn(Cc3ccncc3C(F)(F)F)c2)nc2c1NC(=O)[C@@H](C)N2C` [Compound I-1637], the negative-log IC50 (pIC50) under setting [2] is 5.30 to 6.00.

For `Cc1nc(NCc2cnn(Cc3cc(F)c(F)c(F)c3)c2)nc2c1NC(=O)[C@H](C1CC1)N2C` [Compound 456, (S)-7-cyclopropyl-4,8-dimethyl-2-(((1-(3,4,5-trifluorobenzyl)-1H-pyrazol-4-yl)methyl)amino)-7,8-dihydropteridin-6(5H)-one], the pIC50 under setting [1] was more than 6.52.

In the case of `Cc1nc(NC2CN(C(=O)c3csc(C(F)(F)F)n3)C2)nc2c1NC(=O)[C@H](C(C)C)N2C` [Compound 613, (S)-7-isopropyl-4,8-dimethyl-2-((1-(2-(trifluoromethyl)thiazole-4-carbonyl)azetidin-3-yl)amino)-7,8-dihydropteridin-6(5H)-one], the pIC50 under setting [1] was 6.00 to 6.52.

As to `CCC[C@H]1C(=O)Nc2c(C)nc(NCc3cnn(Cc4ccc(C(F)(F)F)nc4)c3)nc2N1C` [Compound 220, (7S)-4,8-dimethyl-7-propyl-2-(((1-((6-(trifluoromethyl)pyridin-3-yl)methyl)-1H-pyrazol-4-yl)methyl)amino)-7,8-dihydropteridin-6(5H)-one], under setting [1], the negative-log IC50 (pIC50) is more than 6.52.

As to `CO[C@H](C)[C@H]1C(=O)Nc2c(C)nc(NCc3cnn(CC4CC(F)(F)C4)c3)nc2N1C` [Compound 728, (S)-2-(((1-((3,3-difluorocyclobutyl)methyl)-1H-pyrazol-4-yl)methyl)amino)-7-((R)-1-methoxyethyl)-4,8-dimethyl-7,8-dihydropteridin-6(5H)-one], under setting [1], the negative-log IC50 (pIC50) is more than 6.52.

Consider `C[C@H]1C(=O)Nc2cnc(NCc3ccc(-c4ccc(F)cc4)o3)nc2N1C` [Compound 43, (7S)-2-(((5-(4-fluorophenyl)furan-2-yl)methyl)amino)-7,8-dimethyl-7,8-dihydropteridin-6(5H)-one], for which the pIC50 under setting [1] was not above 5.30.

Take `Cc1nc(NC2CN(C(=O)C3CCCCO3)C2)nc2c1NC(=O)[C@H](C(C)C)N2C` (stereo partly drawn) [Compound 611, (7S)-7-isopropyl-4,8-dimethyl-2-((1-(tetrahydro-2H-pyran-2-carbonyl)azetidin-3-yl)amino)-7,8-dihydropteridin-6(5H)-one]: the pIC50 under setting [1] is not above 5.30.

`Cc1cc(C(F)(F)F)n(C[C@H]2C[C@@H](Nc3nc(C)c4c(n3)N(C)[C@@H](C(C)C)C(=O)N4)C2)n1` [Compound 582, (S)-7-isopropyl-4,8-dimethyl-2-((cis-3-((3-methyl-5-(trifluoromethyl)-1H-pyrazol-1-yl)methyl)cyclobutyl)amino)-7,8-dihydropteridin-6(5H)-one]: under setting [1], the negative-log IC50 (pIC50) was 6.00 to 6.52.

As to `Cc1nc(NCc2cnn(Cc3ccc(F)nc3)c2)nc2c1NC(=O)[C@@H](C1CC1)N2C` [Compound I-1641], under setting [2], the pIC50 was not above 5.30.

For the compound `Cc1nc(N[C@H]2C[C@H](Oc3ncc(F)cn3)C2)nc2c1N(C)C(=O)[C@H](C)N2C` [Compound 274, (S)-2-((trans-3-((5-fluoropyrimidin-2-yl)oxy)cyclobutyl)amino)-4,5,7,8-tetramethyl-7,8-dihydropteridin-6(5H)-one], under setting [1], the pIC50 is not above 5.30.

As for `COc1cc(F)ccc1O[C@H]1C[C@H](Nc2nc(C)c3c(n2)N(C)[C@@H](C)C(=O)N3C)C1` [Compound 345, (7S)-2-((trans-3-(4-fluoro-2-methoxyphenoxy)cyclobutyl)amino)-4,5,7,8-tetramethyl-7,8-dihydropteridin-6(5H)-one], the pIC50 under setting [1] is 6.00 to 6.52.

In the case of `Cc1nc(N[C@H]2C[C@H](NC(=O)Cc3ccc(C(F)(F)F)nc3)C2)nc2c1NC(=O)[C@H](C(C)C)N2C` [Compound 560, N-(trans-3-(((S)-7-isopropyl-4,8-dimethyl-6-oxo-5,6,7,8-tetrahydropteridin-2-yl)amino)cyclobutyl)-2-(6-(trifluoromethyl)pyridin-3-yl)acetamide], the negative-log IC50 (pIC50) under setting [1] is not above 5.30.
